From article PMC11742723, “The clinical-stage drug BTZ-043 accumulates in murine tuberculosis lesions and efficiently acts against Mycobacterium tuberculosis” (Nature Communications, 2025)
Values after ≈ are worked out from the molar mass of the structure shown. Values joined by “and” are separate entries in the source; they are usually repeats but may differ in a detail not shown here. Identical values can stand only once. Like-named read-outs stand apart in the source and are kept apart here.

Experiments:
[1] = BALB/c, mouse, in vivo, po
Caco-2 cell monolayers [2] = system: Caco-2 cell monolayers
[3] = for ng BTZ-043 / mg cryosection: individual cryosections; for BTZ-043 concentration in lung cryosections: Mtb-infected IL-13tg mice, 10 daily doses 250 mg/kg, one mouse each, n=5 cryosections, 250 mg/kg
[4] = IL-13tg, mouse, in vivo
H37Rv = settings: in vitro, against H37Rv; cited from earlier work
in vivo = settings: IL-13tg, mouse, oral, 250 mg/kg
in vitro = settings: human
[5] = In vitro permeability assay in Caco-2 monolayers; settings: human, Caco-2
Caco-2 cell monolayers [6] = test: In vitro permeability assay in Caco-2 monolayers; settings: direction AB, time 60 min
[7] = Impact of γ-irradiation on BTZ-043 in lung cryosections of treated mice (LC-MS/MS, MALDI imaging)

For `C[C@H]1COC2(CCN(c3nc(=O)c4cc(C(F)(F)F)cc([N+](=O)[O-])c4s3)CC2)O1` [BTZ-043], the AUCinf ([1]; 2.5 mg/kg/day) was 666 ng·h/mL, the Cmax ([1]; 2.5 mg/kg/day) was 520 ng/mL and the Tmax ([1]; 2.5 mg/kg/day) was 30 min. The AUCinf ([1]; 5 mg/kg/day) was 1,360 h·ng/mL, the Cmax ([1]; 5 mg/kg/day) was 1,050 ng/mL and the Tmax ([1]; 5 mg/kg/day) was 30 min. For the same molecule, the AUCinf ([1]; 50 mg/kg/day) was 14,700 h·ng/mL, the Cmax ([1]; 50 mg/kg/day) was 8070 ng/mL and the Tmax ([1]; 50 mg/kg/day) was 30 min. The permeability classification (Caco-2 cell monolayers [2]) was “permeable drug”, the “transport mechanism indicated by efflux ratios” value (Caco-2 cell monolayers [2]) was “passive diffusion is dominant over active transport mechanisms” and the “ng BTZ-043 / mg cryosection” value ([3]; 2 h after administration, mouse KW116 B9#1 (male)) was 1.02 ng / mg cryosection and 0.92 ng / mg cryosection and 0.62 ng / mg cryosection. For the same molecule, the “ng BTZ-043 / mg cryosection” value ([3]; 8 h after administration, mouse KW116 B15#1 (female)) was 0.27 ng / mg cryosection (2×) and 0.21 ng / mg cryosection and 0.36 ng / mg cryosection, the “pulmonary drug concentrations in lung cryosections” value ([3]; IL-13tg mice, until 8 h after administration) was 270 to 1940 ng/g and the “BTZ-043 concentration in lung cryosections” value ([3]; 0.5 h after last administration) was 1.32 ± 0.33 ng/mg cryosection. For the same molecule, the “BTZ-043 concentration in lung cryosections” value ([3]; 2 h after last administration) was 1.10 ± 0.25 ng/mg cryosection, the “BTZ-043 concentration in lung cryosections” value ([3]; 4 h after last administration) was 0.79 ± 0.12 ng/mg cryosection and 1.94 ± 0.37 ng/mg cryosection and the “BTZ-043 concentration in lung cryosections” value ([3]; 8 h after last administration) was 0.27 ± 0.05 ng/mg cryosection and 0.65 ± 0.06 ng/mg cryosection. The “pulmonary BTZ-043 concentrations relative to the MIC” value ([3]; all time points investigated (0.5-8 h), n=8 mice) was “substantially higher than the MIC at all time points investigated”, the “BTZ-043 concentration in the whole section above the MIC” value ([3]; lung cryosections, 4 and 8 h) was “at least 100 x” and the “penetration into the lesion by MALDI imaging” value [4] was “penetration of BTZ-043 into the lesion was observed”. The finding at necropsy (BTZ-043 treated mice, most pronounced at the highest dose for 8 weeks) was “enlarged stomachs”, the “health status of drug treated mice at high treatment doses” value (dose escalation study, BALB/c) was “did not observe any indication that could point to adverse side effects” and the MIC (H37Rv) was 1 ng/mL (≈ 2.32 nM). For the same molecule, the concentration at 0.5 h (in vivo; both, lung (cryosections)) was 1120 ± 190 ng/g, the concentration at 2 h (in vivo; both, lung (cryosections)) was 910 ± 150 ng/g and the concentration at 8 h (in vivo; both, lung (cryosections)) was 270 ng/mL. The concentration at 4 h (in vivo; female, lung cryosection) was 780 ng/g, the concentration at 8 h (in vivo; female, lung cryosection) was 260 ng/g and the concentration at 2 h (in vivo; female, lung cryosections) was 1090 ng/g. It also gave a concentration at 2 h (in vivo; male, lung cryosection) of 950 ng/g, a concentration at 0.5 h (in vivo; male, lung cryosections) of 1280 ng/g and a concentration at 4 h (in vivo; male, lung cryosections) of 1380 ng/g. It also gave a concentration at 8 h (in vivo; male, lung cryosections) of 730 ng/g, a Papp B→A at 120 min (in vitro; Caco-2) of 6.9 to 12.9 ×10⁻⁶ cm/s and a Papp at 120 min, 1 µg/mL (in vitro; Caco-2, Mean Papp) of 9.44 ×10⁻⁶ cm/s. For the same molecule, the Papp at 120 min, 4 µg/mL (in vitro; Caco-2, Mean Papp) was 12.9 ×10⁻⁶ cm/s, the Papp A→B at 120 min [5] was 9.44 to 11.3 ×10⁻⁶ cm/s and the Papp at 120 min, 4 µg/mL [5] was 11.3 ×10⁻⁶ cm/s. The efflux ratio at 120 min, 1 µg/mL [5] was 0.73, the efflux ratio at 120 min, 4 µg/mL [5] was 1.14 and the Concentration (Caco-2 cell monolayers [6]; BTZ-043 4 μg mL^-1, replicates 1-3) was 124.355 ng/mL. The “Calculated Amount” value (Caco-2 cell monolayers [6]; BTZ-043 (4 µg mL^-1), compartment baso) was 124.355, the concentration at 1 h ([7]; BALB/c, mouse, 250 mg/kg/day, ng/mg lung cryosection, measurement 2, no gamma irradiation, 1h after BTZ administration, naïve BALB/c 250 mg/kg/day 5 days, single cryosection) was 1400 ng/g and the “ng/mg lung cryosection, Mean” value ([7]; gamma irradiation, 1h after BTZ administration, naïve BALB/c 250 mg/kg/day 5 days, single cryosection) was 13.81 ng/mg lung cryosection. The “impact of γ-irradiation on the concentration and distribution of BTZ-043” value ([7]; lung tissue cryosections, 5.85 kGy) was “does not impact”.
